Assay: wn = mass fraction of the nth substance listed
Conditions: 101 kPa, Liquid; for viscosity: Capillary tube (Ostwald / Ubbelohde) method; for speed of sound: Linear variable-path acoustic interferometer; for mass density: Pycnometric method

OC[C@H]1O[C@@](CO)(O[C@H]2O[C@H](CO)[C@@H](O)[C@H](O)[C@H]2O)[C@@H](O)[C@@H]1O [D-sucrose] + O
Conditions	mass density [kg/m3]	speed of sound [m/s]	viscosity [mPa·s]
293.15 K, w1 = 0.05	1018.91	1501.4	1.214
293.15 K, w1 = 0.1	1039.28	1522.5	1.376
293.15 K, w1 = 0.15	1060.31	1533.4	1.609
293.15 K, w1 = 0.2	1082.73	1545.2	1.932
298.15 K, w1 = 0.05	1017.19	1516.5	1.011
298.15 K, w1 = 0.1	1037.45	1531.8	1.183
298.15 K, w1 = 0.15	1058.49	1543.6	1.418
298.15 K, w1 = 0.2	1080.77	1555.3	1.756
303.15 K, w1 = 0.05	1015.46	1526.6	0.9129
303.15 K, w1 = 0.1	1035.61	1541.8	1.061
303.15 K, w1 = 0.15	1056.67	1553	1.252
303.15 K, w1 = 0.2	1078.8	1564.6	1.549
308.15 K, w1 = 0.05	1013.72	1537.8	0.8285
308.15 K, w1 = 0.1	1033.76	1551.6	0.9614
308.15 K, w1 = 0.15	1054.84	1562	1.129
308.15 K, w1 = 0.2	1076.84	1575.2	1.396
313.15 K, w1 = 0.05	1011.98	1547.7	0.7457
313.15 K, w1 = 0.1	1031.93	1561.8	0.8804
313.15 K, w1 = 0.15	1053.01	1570.8	1.025
313.15 K, w1 = 0.2	1074.88	1583.9	1.25
318.15 K, w1 = 0.05	1010.23	1557.2	0.6946
318.15 K, w1 = 0.1	1030.09	1570.9	0.8179
318.15 K, w1 = 0.15	1051.2	1579.2	0.9402
318.15 K, w1 = 0.2	1072.93	1592.8	1.15

Reference: the NIST ThermoML archive (doi:10.1016/j.jct.2012.11.001)
